In brackets after ≈: the same amount, converted by molar mass. Several values for one entry are separate records, joined by “and”; a condition that tells them apart may be missing. Identical values can stand only once. Like-named read-outs stand apart in the source and are kept apart here.
Key:
A2780/DX cells = test: Antiproliferative activity, A2780/DX; format: cell-based; settings: Homo sapiens, 72 h treatment, cell counting, MDR phenotype mediated by P-gp
Procedure: (§1) Drugs were dissolved in DMSO and freshly diluted in medium before use. The antiproliferative activity was evaluated on A2780 (human ovarian carcinoma) and its derived drug-resistant cell lines (A2780/DX, A2780/DDP), IGROV-1/Pt1 (human ovarian carcinoma), GBM (human glioblastoma) and MX-1 (human mammary carcinoma). All cell lines, except MX-1, were maintained in RPMI 1640 (Bio-Whittaker, Verviers, Belgium) supplemented with 10% fetal calf serum (Life Technologies, Gaithersburg, MD, USA). MX-1 cells were maintained in McCoy's medium (Life Technologies, Gaithersburg, MD, USA) supplemented with 10% fetal calf serum. For experiments, all cell lines were seeded into six-well plates in duplicate and treated, 24 or 72 h (only MX-1 cells) after seeding, with solvent or different concentrations of taxanes. Adherent cells were counted 72 h after the beginning of treatment, by a cell counter (Coulter Electronics, Luton, UK) or detected by the Sulforhodamine B colorimetric assay (only GBM cells). The IC50 was defined as the drug concentration causing a 50% decrease in cell number over that of untreated controls.

GBM (human glioblastoma) = test: Antiproliferative activity, GBM (Sulforhodamine B); format: cell-based
Procedure: as §1

VEGF = VEGF expression in GBM cells, immunoblotting; settings: 72 h at IC80: IDN 5390 40, PTX 17 ng ml^−1
in vivo = settings: female, athymic nude CD-1, mouse, sc
human tumour cell lines = format: cell-based
Procedure: as §1

[1] = test system: IGROV-1 PTX-resistant ovarian tumour xenograft; test: Antitumour activity on IGROV-1 xenograft; settings: p.o., qd × 5/w × 3w, 120 mg kg^−1
Procedure: (§2) All the experiments were carried out using female athymic nude CD-1 mice, 8–11 weeks old (Charles River, Calco, Italy). The mice were maintained in laminar flow rooms with constant temperature and humidity.
(§3) Taxanes were dissolved by adding absolute ethanol and Cremophor ELP (both 5% of the final volume), in that sequence, on a magnetic stirrer. […] After dilution, the drug solutions were always kept on ice. […] (Milano, Italy) and, just before use, it was diluted, by slowly adding 0.9% NaCl and occasionally stirring the solution (final Polysorbate 80: 10%, v v^−1). […] When higher doses were to be given, larger volumes were injected.
(§4) Tumour lines were maintained in vivo by successive s.c. transplants of tumour fragments in animal flanks.
(§5) For chemotherapy experiments, tumour fragments (about 2 × 2 × 2 mm), obtained from tumour lines, were implanted s.c. Each control or drug-treated group included five or six mice bearing bilateral s.c. tumours. Tumours were implanted on day 0, and tumour growth was followed by biweekly measurements of tumour diameters with a vernier caliper. Tumour weight (TW) was calculated according to the formula: TW (mg)=tumour volume (mm^3)=d^2 × D/2, where d and D are the shortest and the longest diameter, respectively. Different treatment routes (i.v., s.c. or p.o.) and schedules (daily or intermittent) were investigated. […] Control mice were injected with the solvent solution.
(§6) Experimental groups were eliminated when mean TW was about 1.5±0.5 g, or after 100 days.
(§7) For statistical analysis, tumour weights in different groups of treated mice were compared on day of TWI% evaluation, by Student's t-test (two-tailed). P⩽0.05 was considered significant.
(§8) The tolerability of the compound was assessed in tumour-bearing mice as follows: (a) lethal toxicity, that is, any death in treated mice without or with small (⩽300 mg) tumours, or occurring before any control death; (b) body weight loss % (BWL%)=100–(BW on day x/BW on day 1 × 100), where x represents a day after or during the treatment period. The maximal BWL values are reported; and (c) vesicant toxicity defined as the appearance of ulcers and/or inflammation at the injection site where the drugs were delivered s.c.

[2] = test system: MX-1 mammary tumour xenograft; settings: for LCK (1 g) / Max BWL (%) / Tox/Tot / Max TWI%: qd × 4–5/w × 3w
A2780/DDP cells = test: Antiproliferative activity, A2780/DDP; format: cell-based; settings: Homo sapiens, 72 h treatment, cell counting, mean±s.d., three experiments
Procedure: as §1

[3] = Pharmacokinetic study, plasma levels by HPLC; format: in vivo, CDF1 mice; settings: female, CDF1, mouse
Procedure: In order to assess the bioavailability of IDN 5390, a pharmaco-kinetic study was performed in female CDF1 mice (Charles River Italia, Calco, Italy). IDN 5390, formulated in Polysorbate 80 and diluted in 0.9% NaCl solution, immediately before treatment, was administered p.o. or i.v. at the dose of 120 mg kg^−1. Blood samples were taken (four mice per group) from the retro-orbital plexus, under diethylether anaesthesia at 5, 15 and 30 min and at 1, 2 and 4 h.
IDN 5390 levels were determined in plasma according to the high-performance liquid chromatography (HPLC) method of [Zaffaroni et al (2002)]. Briefly, plasma samples (0.4 ml) were spiked with 1 μg IDN 5517, as internal standard, and with 0.7 ml of 0.2 M ammonium acetate buffer, pH 4.5, and extracted by solid-phase extraction on a cyano cartridge (Waters, Millford, MA, USA). HPLC analyses were carried out on a Symmetry C18 column (3.5 μm, 4.6 × 150 mm; Waters, London, UK), with UV detection of the analytes at 227 nm. The lower limit of quantitation was of 50 ng ml^−1.
Pharmacokinetic parameters were calculated by using a nonlinear fitting program ([Sacchi-Landriani et al, 1983]). The experimental areas under the concentration–time curve (AUCexp) of IDN 5390 were calculated by the trapezoidal rule. Extrapolations to infinity (AUCinf) were obtained by dividing the concentration at the last experimental points by the elimination constant (Ke). The terminal half-lives (T1/2) were calculated using the formula T1/2=0.693/Ke. Clearance (Clp) and volume of distribution (Vd) were obtained from the following relation: Clp=Dose/AUCext and Vd=Clp/Ke, respectively. The bioavailability (F) was derived from the ratio: F=AUCp.o./AUCi.v. 100.

[4] = mouse, in vivo
[5] = test system: INT.ACP/PTX PTX-resistant ovarian tumour xenograft; test: Antitumour activity on INT.ACP/PTX xenograft; settings: p.o.
Procedure: as §2, §3, §4, §5, §6, §7, §8

[6] = 2 × 90 mg kg^−1 p.o., up to 5 weeks, 50 treatments
[7] = qd × 5/w × 2w, 2 × 120 mg kg^−1

In the case of `CC(=O)O[C@@]1([C@@H]2/C(C)=C(/O)C(=O)C3=C(C)[C@@H](OC(=O)[C@H](O)[C@H](CC(C)C)NC(=O)OC(C)(C)C)C[C@@](O)([C@H]2OC(=O)c2ccccc2)C3(C)C)CO[C@@H]1CCO` [IDN 5390, 13-(N-Boc-β-isobutylisoserinyl)-10β-dehydro-C-seco-10-deacetylbaccatin III], the IC50 (A2780/DX cells) is reported as 0.334 µg/mL (≈ 0.424 µM), the IC50 (GBM (human glioblastoma); 72 h treatment, Sulforhodamine B assay, mean±s.d., three experiments) is reported as 0.0129 ± 0.0024 µg/mL (≈ 0.0164 µM) and the IC80 (GBM (human glioblastoma); GBM cells, read-out: IC80 (equitoxic concentration)) is reported as 0.04 µg/mL (≈ 0.0508 µM). For the same compound, the VEGF expression (VEGF) was “downregulated”, the MTD (in vivo) was 120 mg/kg and the “reduction of cytotoxicity as compared to PTX” value (human tumour cell lines) was 2–3 fold. The “LCK (1 g)” value [1] was 2.2, the “Max BWL (%)” value [1] was 13% and the “TWI% (day 27)” value [1] was 73%. For the same compound, the Tox/Tot [1] was 0/4, the antitumour efficacy ([2]; 30 mg kg^−1 p.o. twice a day, start when tumours averaged 100 mg) was “not very effective” and the “tumours exhibiting CR at the end of the experiment” value ([2]; 2 × 90 mg kg^−1 p.o., 5 weeks, end of the experiment (100 days)) was “six out of 10”. The lethal toxicity [2, 6] was “no lethal toxicity”, the “max BWL” value [2, 6] was 11% and the “LCK (1 g)” value ([2]; p.o., 120 mg kg^−1, from day 1) was 1.1. For the same compound, the “Max BWL (%)” value ([2]; p.o., 120 mg kg^−1, from day 1) was 5%, the Tox/Tot ([2]; p.o., 120 mg kg^−1, from day 1) was 0/5 and the “Max TWI%” value ([2]; p.o., 120 mg kg^−1, from day 1, day 25) was 82(25) %. For the same compound, the TWI ([2]; s.c., all doses, after 3 weeks of treatment) was over 80%, the “LCK (1 g)” value ([2]; s.c., 60 mg kg^−1, from day 1) was 1.4 and the “Max BWL (%)” value ([2]; s.c., 60 mg kg^−1, from day 1) was 3%. For the same compound, the Tox/Tot ([2]; s.c., 60 mg kg^−1, from day 1) was 0/3, the “Max TWI%” value ([2]; s.c., 60 mg kg^−1, from day 1, day 29) was 83(29) % and the “LCK (1 g)” value ([2]; s.c., 90 mg kg^−1, from day 1) was 2.7. For the same compound, the “Max BWL (%)” value ([2]; s.c., 90 mg kg^−1, from day 1) was 3.5%, the Tox/Tot ([2]; s.c., 90 mg kg^−1, from day 1) was 0/5 and the “Max TWI%” value ([2]; s.c., 90 mg kg^−1, from day 1, day 29) was 97(29) %. The “LCK (1 g)” value ([2]; s.c., 120 mg kg^−1, from day 1) was 1.7–3.1, the “Max BWL (%)” value ([2]; s.c., 120 mg kg^−1, from day 1) was 6–7.5% and the Tox/Tot ([2]; s.c., 120 mg kg^−1, from day 1) was 1/10. For the same compound, the “Max TWI%” value ([2]; s.c., 120 mg kg^−1, from day 1, day 25, P<0.05 vs p.o.) was 93–96 ^*(25) %, the IC50 (A2780/DDP cells) was 0.0318 ± 0.0055 µg/mL (≈ 0.0404 µM) and the bioavailability ([3]; in vivo, bioavailability (F)) was 27.3%. The Vd ([3]; in vivo, iv) was 0.21, the AUC ([3]; in vivo, iv, 120 mg/kg) was 125000 ng·h/mL and the AUC(0-inf) ([3]; in vivo, iv, 120 mg/kg) was 128000 ng·h/mL. For the same compound, the Cmax ([3]; in vivo, iv, 120 mg/kg) was 161 µg/mL, the Tmax ([3]; in vivo, iv, 120 mg/kg) was 5 min and the clearance ([3]; in vivo, iv, 120 mg/kg) was 15.5 mL/min/kg. The half-life ([3]; in vivo, iv, 120 mg/kg) was 54 min, the AUC ([3]; in vivo, po, 120 mg/kg) was 34400 ng·h/mL and the AUC(0-inf) ([3]; in vivo, po, 120 mg/kg) was 35100 ng·h/mL. For the same compound, the Cmax ([3]; in vivo, po, 120 mg/kg) was 25 µg/mL, the Tmax ([3]; in vivo, po, 120 mg/kg) was 30 min and the half-life ([3]; in vivo, po, 120 mg/kg) was 42 min. The half-life ([3]; plasma, 120 mg kg^−1, in mice, read-out: T1/2) was under 60 min, the neurotoxicity [4] was “no symptoms of neurotoxicity were evident” and the “LCK (1 g)” value ([5]; qd × 5/w × 2w, 180 mg kg^−1) was 1.9. The “Max BWL (%)” value ([5]; qd × 5/w × 2w, 180 mg kg^−1) was 10%, the Tox/Tot ([5]; qd × 5/w × 2w, 180 mg kg^−1) was 2/5 and the “TWI% (day 27)” value ([5]; qd × 5/w × 2w, 180 mg kg^−1, P<0.05 vs 2 × 90 mg kg^−1) was 96% and 96 ^* %. For the same compound, the “LCK (1 g)” value [5, 7] was 1.4, the “Max BWL (%)” value [5, 7] was 15% and the “TWI% (day 27)” value [5, 7] was 87%. The Tox/Tot [5, 7] was 1/5, the “LCK (1 g)” value ([5]; qd × 5/w × 3w, 2 × 90 mg kg^−1) was 0.8 and the “Max BWL (%)” value ([5]; qd × 5/w × 3w, 2 × 90 mg kg^−1) was 9%. For the same compound, the “TWI% (day 27)” value ([5]; qd × 5/w × 3w, 2 × 90 mg kg^−1) was 66% and the Tox/Tot ([5]; qd × 5/w × 3w, 2 × 90 mg kg^−1) was 0/6.

From paper PMC2377083, “IDN 5390: an oral taxane candidate for protracted treatment schedules” (British Journal of Cancer, 2003)
